Test results taken from ChEMBL document CHEMBL6109178, “Species-Dependent Metabolism of a Covalent nsP2 Protease Inhibitor with In Vivo Antialphaviral Activity” (J Med Chem, 2025).
Calls of active or inactive are those of the source. No cut-off for these calls is given here.

How the values were obtained:
Type in all cases: functional, organism-based
Chikungunya virus [1] = assay: Antiviral activity against CHIKV infected in male C57BL/6 mouse assessed as reduction in viral level in left quad at 100 mg/kg, administered three times a day and measured after 48 hrs
Chikungunya virus [2] = assay: Antiviral activity against CHIKV infected in male C57BL/6 mouse assessed as reduction in viral level in right quad at 100 mg/kg, administered three times a day and measured after 48 hrs
Chikungunya virus [3] = assay: Antiviral activity against CHIKV infected in male C57BL/6 mouse assessed as reduction in viral level in spleen at 100 mg/kg, administered three times a day and measured after 48 hrs
Chikungunya virus [4] = assay: Antiviral activity against CHIKV infected in male C57BL/6 mouse assessed as reduction in viral level in left foot at 100 mg/kg, administered three times a day and measured after 48 hrs
Chikungunya virus [5] = assay: Antiviral activity against CHIKV infected in male C57BL/6 mouse assessed as reduction in viral level in right foot at 100 mg/kg, administered three times a day and measured after 48 hrs
Chikungunya virus [6] = assay: Antiviral activity against CHIKV infected in male C57BL/6 mouse assessed as reduction in viral level in serum at 100 mg/kg, administered three times a day and measured after 48 hrs

For `CCOc1ccccc1-c1cc(C(=O)NC/C=C/S(C)(=O)=O)n[nH]1`, the Activity (Chikungunya virus [1]) was “Active”, the Activity (Chikungunya virus [2]) was “Active” and the Activity (Chikungunya virus [3]) was “Active”. The Activity (Chikungunya virus [4]) was “inactive”, the Activity (Chikungunya virus [5]) was “Active; Viral Level Reduced In 4 Out Of 5 Mouse” and the Activity (Chikungunya virus [6]) was “Active; Reduction Of Small Level Of Virus Level Observed”.
